Patent US4670255A, “Hair tonic composition” (priority 1983, dated 1987)

tested on: testosterone 5α-reductase; test: Determination of 5α-reductase inhibitory activity (labelled testosterone conversion); type: biochemical, rats
Protocol: Prostate gland cells of rats were crushed and a specimen of testosterone 5α-reductase was then prepared by separating microsome from the crushed liquid mixture. The conversion of testosterone to 5α-dihydrotestosterone by the use of the above-prepared enzyme specimen was monitored by radioisotopically labelled testosterone. The reaction mixture was extracted with ethyl acetate and the extract was developed twice by silica gel thin layer chromatography (solvent system, dichloromethane:cyclohexane:acetone=15:4:1). The amount of 5α-dihydrotestosterone were determined from the intensities of the radioactivity.
A 30 μl amount of a 0.05M phosphate buffer (pH=6.6) containing 0.1% of BSA (bovine serum albumin), 10 μl of an enzyme specimen, 8.5 pmol of labelled testosterone, 50 nmol of a reduced form of NADP (nicotinamide adenine dinucleotide phosphate), and 10 μl of a test sample were mixed (total amount=50 μl). The mixture was allowed to react at a temperature of 25° C. for 60 minutes.
After the completion of the reaction, the reaction mixture was extracted with ethyl acetate by adding 50 μl of ethyl acetate to the reaction mixture. The extract was developed in the same manner as mentioned above and the intensity of the radioisotope was measured by using a scintillation counter.
The above-mentioned determination was applied to the samples having various concentrations. The 5α-reductase inhibitory activity was obtained as a inhibitory rate (%) or a 50% inhibitory concentration.

Row | 5α-reductase inhibitory activity (in words) | Structure (SMILES)
1 | especially strong | CCCCC/C=C\C/C=C\CCCCCCCC(=O)O [linolic acid]
2 | especially strong | CCCCCC/C=C\CCCCCCCC(=O)O [palmitoleic acid]
3 | especially strong | CCCCCCCCCCCCCCCC(=O)O [palmitic acid]

Row | Structure (SMILES) | 5α-reductase inhibitory activity (in words)
4 | CCCCCCCC/C=C\CCCCCCCC(=O)O [oleic acid] | especially strong
